Tested on: Adult Musca domestica of WHO(N) species
Assay: Filter test on flies (Musca domestica), ingestion/contact method
Assay type: in vivo
Details: time of reading not stated (1, 3, 5 and 24 hours)
Description: Filter test on flies (Musca domestica)—ingestion/contact method
Test animals: Adult Musca domestica of WHO(N) species
In order to prepare a suitable formulation a solution of active compound is prepared froom 20 mg of active compound and 1 ml of DMSO. The active compound solution is diluted with water to the concentration required in each case.
2 ml of this preparation of active compound are pipetted onto filter paper discs (of a diameter of 9.5 cm) contained in Petri dishes of the appropriate size. After drying the filter discs, 100 μl of the active compound formulation and 400 μl of a sugar solution are poured onto a block of household sponge cloth measuring 1 cm^2 and placed in a blister well on the filter disc. 25 CO2-intoxicated test animals are transferred to the Petri dishes and covered.
After 1, 3, 5 and 24 hours the activity of the active compound preparation is determined. 100% means that all of the flies have been destroyed; 0% means that none of the flies have been destroyed.

CCC(C)C1OC2(C=CC1C)CC1CC(CC=C(C)C(OC3CC(OC)C(OC4CC(OC)C(=CCNOC)C(C)O4)C(C)O3)C(C)C=CC=C3COC4C(O)C(C)=CC(C(=O)O1)C34O)O2 (centres unmarked) [Compound 69]
activity (100% = all of the flies destroyed) (10 ppm): 50% | activity (100% = all of the flies destroyed) (100 ppm): 100%

Reference: patent US6605595B1, “Avermectin derivatives” (The Kitasato Institute, priority 1999, dated 2003)
